Assay results as given in patent US20250197382A1, “KIF18A INHIBITOR” (WIGEN BIOMEDICINE TECHNOLOGY (SHANGHAI) CO., LTD., priority 2022, published 2025).

molecular target: Recombinant human KIF18A (1-467His-tagged) protein (Homo sapiens (Human), UniProt Q8NI77); experiment: KIF18A enzyme assay (microtubule-stimulated ATPase activity, ADP-Glo); type: biochemical; conditions: 30 nM KIF18A, ATP 75 μM, read-out: inhibitory activity against KIF18A IC50
Procedure, shortened: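 Baculovirus-expressed human KIF18A (1-467, His-tagged; 30 nM) preincubated 15 min at room temperature with compound (22-point 2-fold series) in pH 7.5 Tris buffer containing 30 μg/mL pig microtubules and 1 μM paclitaxel.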

Chain of Recombinant human KIF18A (1-467His-tagged) protein (Q8NI77 1-467): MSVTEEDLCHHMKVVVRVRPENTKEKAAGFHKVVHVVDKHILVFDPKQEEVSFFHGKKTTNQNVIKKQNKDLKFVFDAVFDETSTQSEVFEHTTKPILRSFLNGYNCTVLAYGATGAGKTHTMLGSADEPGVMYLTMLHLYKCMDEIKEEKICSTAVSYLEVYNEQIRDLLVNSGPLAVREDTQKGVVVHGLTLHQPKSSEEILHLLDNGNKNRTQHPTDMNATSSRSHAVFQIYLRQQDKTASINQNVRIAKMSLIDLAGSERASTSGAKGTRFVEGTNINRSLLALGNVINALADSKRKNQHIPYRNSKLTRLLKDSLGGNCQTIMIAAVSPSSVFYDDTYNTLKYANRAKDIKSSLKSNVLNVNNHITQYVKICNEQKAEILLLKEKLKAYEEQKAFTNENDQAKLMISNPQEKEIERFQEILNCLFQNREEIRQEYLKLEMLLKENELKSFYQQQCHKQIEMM
Chain of Recombinant human KIF18A (1-467His-tagged) protein (P02550 whole entry partner): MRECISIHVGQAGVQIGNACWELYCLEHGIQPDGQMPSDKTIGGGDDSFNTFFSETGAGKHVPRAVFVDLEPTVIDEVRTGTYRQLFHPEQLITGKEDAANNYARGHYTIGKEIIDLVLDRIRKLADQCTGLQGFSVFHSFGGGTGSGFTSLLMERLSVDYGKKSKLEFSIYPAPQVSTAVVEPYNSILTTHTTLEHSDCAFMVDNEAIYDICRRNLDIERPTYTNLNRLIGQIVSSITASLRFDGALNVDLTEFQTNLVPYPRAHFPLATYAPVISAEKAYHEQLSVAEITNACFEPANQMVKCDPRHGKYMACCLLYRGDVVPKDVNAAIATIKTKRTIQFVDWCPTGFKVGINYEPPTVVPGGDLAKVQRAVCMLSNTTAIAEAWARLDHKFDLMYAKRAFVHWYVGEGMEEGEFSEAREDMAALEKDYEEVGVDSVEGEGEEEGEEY
Chain of Recombinant human KIF18A (1-467His-tagged) protein (P02554 whole entry partner): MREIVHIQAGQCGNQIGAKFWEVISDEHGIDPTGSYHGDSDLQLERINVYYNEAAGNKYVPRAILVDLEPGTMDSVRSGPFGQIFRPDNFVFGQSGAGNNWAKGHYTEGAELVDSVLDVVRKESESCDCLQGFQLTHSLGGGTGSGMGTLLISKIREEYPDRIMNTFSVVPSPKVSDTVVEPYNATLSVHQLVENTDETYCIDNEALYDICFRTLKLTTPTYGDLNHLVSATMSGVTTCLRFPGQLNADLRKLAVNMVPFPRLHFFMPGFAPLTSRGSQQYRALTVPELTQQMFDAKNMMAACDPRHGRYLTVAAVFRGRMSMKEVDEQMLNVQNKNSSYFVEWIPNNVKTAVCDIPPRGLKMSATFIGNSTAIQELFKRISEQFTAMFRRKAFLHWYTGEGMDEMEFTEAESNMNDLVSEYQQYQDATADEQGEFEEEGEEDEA

Row | IC50 | SMILES
1 | ≤ 100 nM | O=C(Nc1cc(N2CCC3(CC3)C2)c2occc2c1)c1ccc(S(=O)(=O)NCCO)cc1N1CCC2(CC1)CC2 [Compound 150]
2 | ≤ 100 nM | CC1(F)CCN(c2nc(C(=O)Nc3ccc(NS(=O)(=O)CCO)cc3N3CCC4(CC3)CC4)cc3ccoc23)C1 (stereo not shown) [Compound 232]
3 | ≤ 100 nM | O=C(Nc1cc2c(c(N3CC4CC4C3)n1)OCC2)c1ccc(S(=O)(=O)NCCO)cc1N1CCC2(CC1)CC2 (stereo not shown) [Compound 90]
4 | ≤ 100 nM | Cn1ccc2cc(NC(=O)c3ccc(S(=O)(=O)NCCO)cc3N3CCC4(CC3)CC4)cc(N3CC(F)(F)C3)c21 [Compound 404]
5 | ≤ 100 nM | C[C@@H](CO)S(=O)(=O)Nc1ccc(NC(=O)c2cc3ccoc3c(N3CCC(F)(F)CC3)n2)c(N2CCC3(CC2)CC3)c1 [Compound 237]
6 | ≤ 100 nM | CN1CCc2cc(C(=O)Nc3ccc(S(=O)(=O)NCCO)cc3N3CCC4(CC3)CC4)nc(N3CCC(F)(F)CC3)c21 [Compound 369]
7 | ≤ 100 nM | O=C(Nc1ccc(S(=O)(=O)NCCO)cc1N1CCC2(CC1)CC2)c1cc(N2CC(F)(F)C2)c2occc2c1 [Compound 180]
8 | ≤ 100 nM | O=C(Nc1cc2ccoc2c(N2CC(F)(F)C2)n1)c1ccc(S(=O)(=O)NCCO)cc1N1CCC2(CC1)CC2 [Compound 212]
9 | ≤ 100 nM | O=C(Nc1cc2c(c(N3CCC(F)(F)CC3)n1)OCCO2)c1ccc(NS(=O)(=O)CCO)cc1N1CCC2(CC1)CC2 [Compound 544]
10 | ≤ 100 nM | C[C@@H]1CN(c2cc(C(=O)Nc3ccc(S(=O)(=O)NCCO)cc3N3CCC4(CC3)CC4)cc3c2N(C)CC3)CCO1 [Compound 306]
11 | ≤ 100 nM | C[C@H]1CN(c2nc(NC(=O)c3ccc(S(=O)(=O)NCCO)cc3N3CCC4(CC3)CC4)cc3ccn(C)c23)CCO1 [Compound 467]
12 | ≤ 100 nM | C[C@@H]1CN(c2cc(NC(=O)c3ccc(S(=O)(=O)NCCO)cc3N3CCC4(CC3)CC4)cc3c2N(C)CC3)CCO1 [Compound 274]
13 | ≤ 100 nM | C[C@H](CO)S(=O)(=O)Nc1ccc(NC(=O)c2cc3c(c(N4CCC(F)(F)CC4)n2)N(C)CC3)c(N2CCC3(CC2)CC3)c1 [Compound 366]
14 | ≤ 100 nM | C[C@H](CO)NS(=O)(=O)c1ccc(NC(=O)c2cc3c(c(N4CCO[C@H](C)C4)c2)OCC3)c(N2CCC3(CC2)CC3)c1 [Compound 64]
15 | ≤ 100 nM | Cn1ccc2cc(NC(=O)c3ccc(NS(=O)(=O)CCO)cc3N3CCC4(CC3)CC4)cc(N3CCC(C)(F)C3)c21 (stereo not shown) [Compound 392]
16 | ≤ 100 nM | CC1(F)CCN(c2nc(C(=O)Nc3ccc(S(=O)(=O)NCCO)cc3N3CCC4(CC3)CC4)cc3ccoc23)C1 (stereo not shown) [Compound 248]
17 | ≤ 100 nM | O=C(Nc1ccc(S(=O)(=O)NCCO)cc1N1CCC2(CC1)CC2)c1cc2c(c(OCCC(F)(F)F)n1)OCC2 [Compound 117]
18 | ≤ 100 nM | C[C@@H]1CN(c2nc(C(=O)Nc3ccc(S(=O)(=O)N[C@@H](C)CO)cc3N3CCC4(CC3)CC4)cc3ccoc23)CCO1 [Compound 255]
19 | ≤ 100 nM | O=C(Nc1ccc(NS(=O)(=O)CCO)cc1N1CCC2(CC1)CC2)c1cc2c(c(OC3CCC3)n1)OCC2 [Compound 103]
20 | ≤ 100 nM | C[C@@H](CO)NS(=O)(=O)c1ccc(C(=O)Nc2cc(N3CCC(F)(F)CC3)c3occc3c2)c(N2CCC3(CC2)CC3)c1 [Compound 157]
21 | ≤ 100 nM | O=C(Nc1ccc(NS(=O)(=O)CCO)cc1N1CCC2(CC1)CC2)c1cc(N2CC(F)(F)C2)c2occc2c1 [Compound 164]
22 | ≤ 100 nM | O=C(Nc1ccc(NS(=O)(=O)CCO)cc1N1CCC2(CC1)CC2)c1cc2c(c(OCCC(F)(F)F)n1)OCC2 [Compound 101]
23 | ≤ 100 nM | C[C@@H]1CN(c2cc(NC(=O)c3ccc(NS(=O)(=O)[C@@H](C)CO)cc3N3CCC4(CC3)CC4)cc3c2N(C)CC3)CCO1 [Compound 271]

Row | IC50 | SMILES
24 | ≤ 100 nM | Cn1ccc2cc(NC(=O)c3ccc(NS(=O)(=O)CCO)cc3N3CCC4(CC3)CC4)cc(OCCC(F)(F)F)c21 [Compound 389]
25 | ≤ 100 nM | C[C@H](CO)NS(=O)(=O)c1ccc(NC(=O)c2cc(N3CCO[C@H](C)C3)c3occc3c2)c(N2CCC3(CC2)CC3)c1 [Compound 192]
26 | ≤ 100 nM | O=C(Nc1cc(N2CCOCC2)c2occc2c1)c1ccc(S(=O)(=O)NCCO)cc1N1CCC2(CC1)CC2 [Compound 156]
27 | ≤ 100 nM | Cn1ccc2cc(C(=O)Nc3ccc(S(=O)(=O)NCCO)cc3N3CCC4(CC3)CC4)nc(N3CCOCC3)c21 [Compound 508]
28 | ≤ 100 nM | O=C(Nc1cc2c(c(N3CCC(F)CC3)c1)OCC2)c1ccc(NS(=O)(=O)CCO)cc1N1CCC2(CC1)CC2 [Compound 9]
29 | ≤ 100 nM | CN1CCc2cc(C(=O)Nc3ccc(NS(=O)(=O)CCO)cc3N3CCC4(CC3)CC4)cc(N3CCC(F)(F)CC3)c21 [Compound 257]
30 | ≤ 100 nM | C[C@@H]1CN(c2cc(NC(=O)c3ccc(NS(=O)(=O)[C@@H](C)CO)cc3N3CCC4(CC3)CC4)cc3ccoc23)CCO1 [Compound 143]
31 | ≤ 100 nM | C[C@H](CO)NS(=O)(=O)c1ccc(C(=O)Nc2cc(N3CCC(F)(F)CC3)c3c(ccn3C)c2)c(N2CCC3(CC2)CC3)c1 [Compound 414]
32 | ≤ 100 nM | C[C@H](CO)S(=O)(=O)Nc1ccc(NC(=O)c2cc3ccn(C)c3c(N3CCC(F)(F)CC3)n2)c(N2CCC3(CC2)CC3)c1 [Compound 494]
33 | ≤ 100 nM | O=C(Nc1cc2ncsc2c(N2CCC(F)(F)CC2)n1)c1ccc(NS(=O)(=O)CCO)cc1N1CCC2(CC1)CC2 [Compound 516]
34 | ≤ 100 nM | CC(C)(CO)Nc1cc(NC(=O)c2ccc(NS(=O)(=O)CCO)cc2N2CCC3(CC2)CC3)cc2ccoc12 [Compound 139]
35 | ≤ 100 nM | C[C@H](CO)NS(=O)(=O)c1ccc(NC(=O)c2cc3c(c(N4CCC(F)(F)CC4)c2)N(C)CC3)c(N2CCC3(CC2)CC3)c1 [Compound 318]
36 | ≤ 100 nM | C[C@H]1CN(c2cc(C(=O)Nc3ccc(S(=O)(=O)NCCO)cc3N3CCC4(CC3)CC4)cc3c2OCC3)CCO1 [Compound 51]
37 | ≤ 100 nM | C[C@@H]1CN(c2cc(NC(=O)c3ccc(S(=O)(=O)N[C@@H](C)CO)cc3N3CCC4(CC3)CC4)cc3ccn(C)c23)CCO1 [Compound 415]
38 | ≤ 100 nM | CC1(F)CCN(c2nc(NC(=O)c3ccc(NS(=O)(=O)CCO)cc3N3CCC4(CC3)CC4)cc3c2OCC3)C1 (stereo not shown) [Compound 72]
39 | ≤ 100 nM | C[C@H](CO)NS(=O)(=O)c1ccc(C(=O)Nc2cc3ccn(C)c3c(N3CCC(F)(F)CC3)n2)c(N2CCC3(CC2)CC3)c1 [Compound 478]
40 | ≤ 100 nM | Cn1ccc2cc(NC(=O)c3ccc(S(=O)(=O)NCCO)cc3N3CCC4(CC3)CC4)nc(OCCC(F)(F)F)c21 [Compound 469]
41 | ≤ 100 nM | C[C@@H]1CN(c2nc(NC(=O)c3ccc(NS(=O)(=O)CCO)cc3N3CCC4(CC3)CC4)cc3c2N(C)CC3)CCO1 [Compound 322]
42 | ≤ 100 nM | O=C(Nc1ccc(S(=O)(=O)NCCO)cc1N1CCC2(CC1)CC2)c1cc(N2CCC(F)CC2)c2occc2c1 [Compound 185]
43 | ≤ 100 nM | C[C@@H]1CN(c2nc(C(=O)Nc3ccc(NS(=O)(=O)CCO)cc3N3CCC4(CC3)CC4)cc3ccoc23)CCO1 [Compound 226]
44 | ≤ 100 nM | Cn1ccc2cc(NC(=O)c3ccc(NS(=O)(=O)CCO)cc3N3CCC4(CC3)CC4)cc(N3CC4CC4C3)c21 (stereo not shown) [Compound 394]
45 | ≤ 100 nM | O=C(Nc1cc2ccoc2c(OC2CCC2)n1)c1ccc(NS(=O)(=O)CCO)cc1N1CCC2(CC1)CC2 [Compound 199]
46 | ≤ 100 nM | O=C(Nc1cc(N2CCC(F)CC2)c2occc2c1)c1ccc(NS(=O)(=O)CCO)cc1N1CCC2(CC1)CC2 [Compound 137]
